Test [1] concerns the target T1, human Edg-1(S1P1) (Homo sapiens, UniProt P21453).
T1 construct: expressed in transfected cells; host or cells: HEK-293
Description: Cell system binding test: inhibition of [3H]-S1P binding to Edg-1(S1P1) gene transferred HEK-293 cells. Particulars: 10 μM compound, [3H]-S1P 10 nM, read-out: Cell system binding test % inhibition (10 μM).

Test [2] concerns the target T1, human Edg-1(S1P1). Description: Membrane system binding test: inhibition of [33P]-S1P binding to the membrane fraction of Edg-1(S1P1) gene transferred HEK-293 cells. Particulars: 10 μM compound; [33P]-S1P 0.1 nM; membrane fraction of Edg-1(S1P1) gene transferred HEK-293 cells; read-out: Membrane system binding test % inhibition (10 μM). The essentials:
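Compound tested at 10^−5 M final (0.1% DMSO) for blocking 0.1 nM [^33P]-S1P binding to S1P1-expressing HEK-293 membranes, 30 °C, 1 h. Radioactivity retained on filters was counted, and percent inhibition derived relative to vehicle binding, correcting for the background of non-transfected HEK-293 membranes.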

The results in this text go back to patent US8022225B2, “Triazole derivative” (Taisho Pharmaceutical Co., Ltd, priority 2004, dated 2011).

The inhibition is the relative decrease from the control value, in per cent.

The structures appear in SMILES notation.

T1 sequence (P21453 whole entry): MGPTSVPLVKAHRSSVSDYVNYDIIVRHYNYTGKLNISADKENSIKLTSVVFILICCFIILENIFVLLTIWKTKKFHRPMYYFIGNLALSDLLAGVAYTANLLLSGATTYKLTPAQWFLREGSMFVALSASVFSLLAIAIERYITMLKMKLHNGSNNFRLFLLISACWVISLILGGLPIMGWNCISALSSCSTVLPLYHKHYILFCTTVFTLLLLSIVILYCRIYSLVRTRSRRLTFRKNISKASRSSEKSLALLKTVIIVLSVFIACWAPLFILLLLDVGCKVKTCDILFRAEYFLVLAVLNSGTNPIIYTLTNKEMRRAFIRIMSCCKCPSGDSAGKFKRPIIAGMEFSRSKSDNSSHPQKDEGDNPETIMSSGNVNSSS

Take `CCn1c(OC)nnc1[C@@H](C)NS(=O)(=O)c1cc(C(F)(F)F)cc(C(F)(F)F)c1` [Compound 265]: the results for the inhibition at 10 µM in test [1] and in test [2] were 98.2% and 69.5%, respectively.
As for `CCn1c(OC)nnc1[C@@H](C)NS(=O)(=O)c1cc(Cl)cc(Cl)c1` [Compound 266], the figures for the inhibition at 10 µM in test [1] and in test [2] were 97% and 83%, respectively.
For `CCn1c(OC)nnc1[C@@H](C)NS(=O)(=O)c1cccc(Cl)c1C` [Compound 267], in that order: 99.9% and 89.4%.
For `CCn1c(OC)nnc1[C@@H](C)NS(=O)(=O)c1ccc(F)c(Cl)c1` [Compound 268], in that order: 98.7% and 88.6%.
For `CCn1c(OC)nnc1[C@@H](C)NS(=O)(=O)c1cccc(OC)c1` [Compound 269], in that order: 96.3% and 74.5%.
With `CCn1c(OC)nnc1[C@@H](C)NS(=O)(=O)c1cc(F)c(Br)cc1F` [Compound 270], the inhibition at 10 µM worked out at 94.8% in test [1] and 61.3% in test [2].
For `CCn1c(OC)nnc1[C@@H](C)NS(=O)(=O)c1ccc(Br)c(Br)c1` [Compound 272], in that order: 102% and 94.3%.
For `CCn1c(OC)nnc1[C@@H](C)NS(=O)(=O)c1cc(C)ccc1OC` [Compound 273], in that order: 94.3% and 68.4%.
For `CCn1c(OC)nnc1[C@@H](C)NS(=O)(=O)c1ccc(Cl)c(Cl)c1` [Compound 274], in that order: 102% and 104%.
With `CCn1c(OC)nnc1[C@@H](C)NS(=O)(=O)c1cccc(OC(F)(F)F)c1` [Compound 275], the inhibition at 10 µM in test [1] amounted to 99.4%; in test [2], 71.9%.
For `CCn1c(OC)nnc1[C@@H](C)NS(=O)(=O)c1ccc(C#N)cc1` [Compound 277], in that order: 99.7% and 51.4%.
For `CCn1c(OC)nnc1[C@@H](C)NS(=O)(=O)c1ccc(C(C)C)cc1` [Compound 282], in that order: 92.7% and 48.1%.
As for `CCCCCc1ccc(S(=O)(=O)N[C@H](C)c2nnc(OC)n2CC)cc1` [Compound 284], the inhibition at 10 µM was determined as 88% in test [1] and 41.5% in test [2].
Take `CCn1c(OC)nnc1[C@@H](C)NS(=O)(=O)c1ccc(F)c(F)c1F` [Compound 285]: the inhibition at 10 µM in test [1] stood at 97.1%; in test [2], 63.9%.
As for `CCn1c(OC)nnc1[C@@H](C)NS(=O)(=O)c1cc(F)ccc1F` [Compound 286], the inhibition at 10 µM in test [1] was found to be 97.5%; in test [2] it was 57.4%.
Take `CCn1c(OC)nnc1[C@@H](C)NS(=O)(=O)c1ccc(F)c(F)c1` [Compound 287]: the inhibition at 10 µM in test [1] is 100%; in test [2], 80.1%.
Regarding `CCn1c(OC)nnc1[C@@H](C)NS(=O)(=O)c1ccc(Br)cc1F` [Compound 288], the inhibition at 10 µM in test [1] was 103%; in test [2] it was 54.9%.
For `CCn1c(OC)nnc1[C@@H](C)NS(=O)(=O)c1cc(F)c(Cl)cc1F` [Compound 289], in that order: 102% and 63.6%.
For `CCn1c(OC)nnc1[C@@H](C)NS(=O)(=O)Cc1cc(Cl)cc(Cl)c1` [Compound 292], in that order: 96.7% and 51.4%.
For `CCn1c(OC)nnc1[C@@H](C)NS(=O)(=O)c1cccc(F)c1` [Compound 299], in that order: 94.5% and 44.4%.
Consider `CCn1c(OC)nnc1[C@@H](C)NS(=O)(=O)c1cc(F)c(F)cc1F` [Compound 302], for which the results for the inhibition at 10 µM in test [1] and in test [2] were 98.7% and 57.7%, respectively.
For `CCn1c(OC)nnc1[C@@H](C)NS(=O)(=O)c1cc(Br)ccc1Br` [Compound 303], in that order: 97.7% and 56.1%.
Consider `CCn1c(OC)nnc1[C@@H](C)NS(=O)(=O)c1ccc(Br)cc1Br` [Compound 306], for which the inhibition at 10 µM in test [1] is 94.5%; in test [2] it was 62.8%.
For `CCn1c(OC)nnc1[C@@H](C)NS(=O)(=O)c1ccc(F)c(C#N)c1` [Compound 307], in that order: 96.2% and 68%.
As for `CCn1c(OC)nnc1[C@@H](C)NS(=O)(=O)c1cc(C)cc(C)c1` [Compound 308], the inhibition at 10 µM in test [1] amounted to 95.5%; in test [2], 68.1%.
For `CCn1c(OC)nnc1[C@@H](C)NS(=O)(=O)c1ccc(OC(F)F)cc1` [Compound 309], in that order: 93.2% and 46.5%.
Turning to `CCn1c(OC)nnc1[C@@H](C)NS(=O)(=O)c1cccc(OC(F)F)c1` [Compound 310], the results for the inhibition at 10 µM in test [1] and in test [2] were 98.5% and 78.8%, respectively.
For `CCn1c(OC)nnc1[C@@H](C)NS(=O)(=O)c1cc(F)cc(F)c1` [Compound 311], in that order: 97.6% and 52.4%.
For `CCn1c(OC)nnc1[C@@H](C)NS(=O)(=O)c1ccc(Cl)cc1F` [Compound 312], in that order: 95.9% and 50.7%.
`CCn1c(OC)nnc1[C@@H](C)NS(=O)(=O)c1cc(F)c(F)c(F)c1` [Compound 313]: the figures for the inhibition at 10 µM in test [1] and in test [2] were 100% and 93.2%, respectively.
For `CCn1c(OC)nnc1[C@@H](C)NS(=O)(=O)c1ccc(Br)c(C)c1` [Compound 314], in that order: 102% and 100%.
Turning to `CCn1c(OC)nnc1[C@@H](C)NS(=O)(=O)c1ccc(C)c(F)c1` [Compound 315], the inhibition at 10 µM in test [1] is 100%; in test [2], 85%.
For `CCn1c(OC)nnc1[C@@H](C)NS(=O)(=O)c1ccc(Br)c(F)c1` [Compound 317], in that order: 97.2% and 95.8%.
For `CCn1c(OC)nnc1[C@@H](C)NS(=O)(=O)c1ccc(C)c(C)c1` [Compound 319], in that order: 93.4% and 89.9%.
For `CCn1c(OC)nnc1[C@@H](C)NS(=O)(=O)c1cc(C)ccc1F` [Compound 320], in that order: 93.5% and 47.9%.
As for `CCn1c(OC)nnc1[C@@H](C)NS(=O)(=O)c1ccc(F)c(C(F)(F)F)c1` [Compound 321], the inhibition at 10 µM in test [1] was found to be 100%; in test [2], 99.7%.
For `CCn1c(OC)nnc1[C@@H](C)NS(=O)(=O)c1cccc(Cl)c1F` [Compound 322], in that order: 95.9% and 43.5%.
For `CCn1c(OC)nnc1[C@@H](C)NS(=O)(=O)c1ccc2c(c1)CCO2` [Compound 337], in that order: 102% and 61.3%.
On to `CCn1c(OC)nnc1[C@@H](C)NS(=O)(=O)c1ccc2c(c1)OCCO2` [Compound 338], for which the inhibition at 10 µM in test [1] is 103%; in test [2], 69.4%.
For `CCn1c(OC)nnc1[C@@H](C)NS(=O)(=O)c1ccc2nsnc2c1` [Compound 341], in that order: 99.4% and 99.4%.
Turning to `CCn1c(OC)nnc1[C@@H](C)NS(=O)(=O)c1ccc2c(c1)OCCCO2` [Compound 343], the inhibition at 10 µM came to 98.9% in test [1] and 41.4% in test [2].
As to `CCn1c(OC)nnc1[C@@H](C)NS(=O)(=O)c1ccc2c(c1)OCCN2C` [Compound 344], the inhibition at 10 µM worked out at 102% in test [1] and 65.8% in test [2].
For `CCn1c(OC)nnc1[C@@H](C)NS(=O)(=O)c1cccc(C(C)=O)c1` [Compound 355], in that order: 101% and 62.8%.
For `CCn1c(OC)nnc1[C@@H](C)NS(=O)(=O)c1cccc2cnccc12` [Compound 365], in that order: 81.7% and 41.8%.
For `CCn1c(OC)nnc1[C@@H](C)NS(=O)(=O)c1cc(C)sc1C` [Compound 367], in that order: 97% and 41.8%.
For `CCn1c(OC)nnc1[C@@H](C)NS(=O)(=O)c1csc2ccccc12` [Compound 368], the inhibition at 10 µM turned out to be 102% in test [1] and 85.1% in test [2].
For `CCn1c(OC)nnc1[C@@H](C)NS(=O)(=O)c1cc2ccccc2s1` [Compound 369], in that order: 105% and 102%.
For `CCn1c(OC)nnc1[C@@H](C)NS(=O)(=O)c1cc(Br)cc(C(F)(F)F)c1` [Compound 371], in that order: 102% and 61.2%.
For `CCn1c(OC)nnc1[C@@H](C)NS(=O)(=O)c1ccc(Br)c(C(F)(F)F)c1` [Compound 372], in that order: 105% and 94.3%.
As for `CCn1c(OCCOC)nnc1[C@@H](C)NS(=O)(=O)c1ccc(Cl)cc1` [Compound 375], the results for the inhibition at 10 µM in test [1] and in test [2] were 92.6% and 54.3%, respectively.
For `CCn1c(OCC(C)(C)C)nnc1[C@@H](C)NS(=O)(=O)c1ccc(Cl)cc1` [Compound 377], in that order: 97.9% and 90.3%.
For `CCn1c(OCC2CCCCC2)nnc1[C@@H](C)NS(=O)(=O)c1ccc(Cl)cc1` [Compound 378], in that order: 103% and 87.2%.
For `CCn1c(OC(C)C)nnc1[C@@H](C)NS(=O)(=O)c1ccc(Cl)cc1` [Compound 379], in that order: 99.7% and 93.4%.
